PubChem BioAssay AID1419 (Emory University Molecular Libraries Screening Center, 2008)
Calls of active or inactive are those of the source. The rule behind the calls is not given here.

Assay: EBV protein-peptide binding inhibitors, dose response, biochemical, fluorescence polarization (AID 1419)
Settings: cell-free protein-peptide binding, 2 h; for fold change: measured here: P channel fold over control, at 54 µM

| SMILES | IC50 | fold change |
| --- | --- | --- |
| COc1cccc(CN2C(=O)c3cccc(N)c3C2=O)c1 | 4.47 µM | 2.76 |
| O=C(C1=C(O)C(=O)N(c2ncccn2)C1c1cccs1)c1ccco1 (stereo unspecified) | 5.21 µM | 1.87 |
| CN1/C(=C/C=C(C#N)C#N)C(C)(C)c2ccccc21 | > 54 µM (inactive) | 1.64 |
| COc1cccc(C2C3CN(C)CC=C3C(C#N)=C(N)C2(C#N)C#N)c1OC (stereo unspecified) | 0.83 µM | 9.89 |
| O=C(/C(=C(\[O-])c1ccccc1)[n+]1ccc2ccccc2c1)c1ccccc1 | 4.31 µM | 3.02 |
| COc1ccc(-c2c(C#N)c(N)nc3sc(C(=O)c4ccc(C)cc4)c(N)c23)cc1 | 23.5 µM | 5.33 |
| Cc1cc(C)cc(-n2c(O)c(C=Nc3ccc(N4CCOCC4)cc3)c(=O)[nH]c2=S)c1 | > 54 µM (inactive) | 2.23 |
| O=c1[nH]c(=S)n(-c2ccc(Br)cc2)c(O)c1C=Nc1ccc(N2CCOCC2)cc1 | 3.54 µM | 5.78 |
| C1=C(c2ccc(-c3ccccc3)cc2)Nc2ncnn2C1c1ccco1 (stereo unspecified) | < 0.42 µM | 15.5 |
| CC(=O)c1ccc(NC(=O)CSc2ccsc2[N+](=O)[O-])cc1 | > 54 µM (inactive) | 1.06 |
| CS(=O)(=O)n1nc(-c2ccc(Cl)cc2)nc1SCc1ccccc1 | > 54 µM (inactive) | 1.16 |
| Cc1c(O)c2c3c(cccc3c1O)C(=O)N(c1ccccc1)C2=O | 1.41 µM | 7.05 |
| O=C(O)c1ccc2c3c(ncnc13)-c1ccccc1C2=O | > 54 µM (inactive) | 1.83 |
| O=C(c1ccc2nc(-c3ccco3)c(-c3ccco3)nc2c1)N1CCN(c2ncccn2)CC1 | > 54 µM (inactive) | 1.05 |
| Nc1cc(C(=O)O)c(N)c2c1C(=O)c1ccccc1C2=O | < 0.42 µM | 4.83 |
| COc1ncnc2c1N=C1CC(C)(C)CC(N)=C1S2 | 2.31 µM | 6.34 |
| CCOc1cc(/C=N/NC(=O)c2ccc(-c3csc(Nc4ccc(C)cc4)n3)cc2)ccc1OCC(=O)O | 14.8 µM | 1.08 |
| Cc1cc2nc3c(=O)[nH]c(=O)[nH]c3nc2c([N+](=O)[O-])c1N | < 0.42 µM | 67 |
| CC(=O)Nc1ccc(Nc2c3c4c(cccc4n(C)c2=O)C(=O)c2ccccc2-3)cc1 | < 0.42 µM | 9.61 |
| CC1(C)CC(=O)C2=C(C1)OC(N)=C(C#N)C2c1cc2c(cc1[N+](=O)[O-])OCO2 (stereo unspecified) | 2.04 µM | 3.34 |
| CCOc1ccc(-c2c(C#N)c(N)nc3sc(C(=O)c4ccccc4)c(N)c23)cc1 | > 54 µM (inactive) | 4.62 |

| SMILES | IC50 | fold change |
| --- | --- | --- |
| COc1ccc(CCNc2nc(-c3cccnc3)cs2)cc1OC | > 54 µM (inactive) | 1.04 |
| Cc1ccccc1C(=O)Nc1ccc2c(C#N)c3nc4ccccc4nc3n2c1 | 13.7 µM | 0.993 |
| O=C(CCN1C(=O)COc2ccccc21)NCc1ccco1 | > 54 µM (inactive) | 1.02 |
| COc1nc(N/N=C/c2ccc(-c3cccc([N+](=O)[O-])c3)o2)nc(N2CCOCC2)n1 | 24.2 µM | 0.463 |
| Cc1cccc(N2C(=O)NC(=O)/C(=C/c3cc4c(cc3[N+](=O)[O-])OCO4)C2=O)c1 | 2.62 µM | 3.71 |
| NC(=O)c1sc2nc3c(c(-c4ccccc4)c2c1N)CCC3 | > 54 µM (inactive) | 0.963 |
| COc1ccc2c(c1)c1nc3ccccc3nc1n2CC(=O)OC(C)C | 1.21 µM | 6.79 |
| Cn1c(=O)c2[nH]c(-c3ccccc3)c(O)c2n(C)c1=O | < 0.42 µM | 6.43 |
| COC(=O)c1cc2c(C)c(C)c3ccccn3c-2c1C(=O)OC | 3.61 µM | 2.38 |
| COc1ccc(N2C(=O)[C@@H]3[C@H](C2=O)[C@H]2c4ccccc4C=CN2[C@@H]3C(C)=O)cc1 | 7.62 µM | 5.55 |
| CCOC(=O)C1CCN(C(=O)Nc2ccc3nc(-c4ccco4)c(-c4ccco4)nc3c2)CC1 | 5.89 µM | 2.82 |
| CC(C)c1cc(=O)oc2c3c4c(cc12)CCCN4CCC3 | 1.88 µM | 5.95 |
| Cc1cc(NS(=O)(=O)c2ccc(NC(=O)c3cc4cc(Br)ccc4oc3=O)cc2)no1 | 13.7 µM | 1.15 |
| O=C1NC(=Nc2ccc(Cl)cc2)/C(=C/c2ccco2)S1 | 7.25 µM | 0.667 |
| Cc1cc[n+](-c2[nH]c(=O)sc2/C=N/NC([S-])=Nc2ccccc2)cc1C | > 54 µM (inactive) | 1.95 |
| Cc1cc(S(=O)(=O)Nc2nc(CN3CCOCC3)nc3sc4c(c23)CCCC4)ccc1F | > 54 µM (inactive) | 1.04 |
| COc1ccc(/C=C2\SC(=S)N(CCCC(=O)Nc3ccccn3)C2=O)cc1OC | 8.78 µM | 9.33 |
| CCN(CC)C(=O)CC(c1cc(OC)c(OC)c(OC)c1)c1c(OC)cc(OC)c2c(-c3ccccc3)cc(=O)oc12 (stereo unspecified) | 33.8 µM (inactive) | 1.01 |
| Cc1c2ccccc2nc2c(F)c(NCCO)c(F)c(F)c12 | < 0.42 µM | 40.1 |
| C(=N\NC1=Nc2cccc3cccc1c23)/c1ccccc1 | 16.9 µM | 11.4 |
| Cn1cc(Cl)c(C(=O)Nc2nc3ccc([N+](=O)[O-])cc3s2)n1 | > 54 µM (inactive) | 0.983 |

| SMILES | IC50 | fold change |
| --- | --- | --- |
| CCNc1ccc2noc3c2c1C(=O)c1ccccc1-3 | < 0.42 µM | 235 |
| CCOCCCNc1nc2c(C)cccn2c(=O)c1/C=C1\SC(=S)N(CC(C)C)C1=O | > 54 µM (inactive) | 1.58 |
| CCN(CC)c1ccc(N=Cc2c(O)n(-c3ccc(OC)cc3)c(=O)[nH]c2=O)cc1 | 6.01 µM | 17.1 |
| COC(OC)c1ccnc(-c2ccc(OC(=O)c3cccs3)cc2)n1 | > 54 µM (inactive) | 0.937 |
| O=C(C1=C(O)C(=O)N(c2nccs2)C1c1ccccc1)c1cc2ccccc2o1 (stereo unspecified) | < 0.42 µM | 161 |
| O=C1NC(=S)/C(=C\c2ccc(-c3ccccc3Cl)o2)S1 | 26.9 µM | 1.59 |
| CN(C)c1ccc(N=Cc2nc(-c3ccccc3)oc2O)cc1 | 6.01 µM | 21.1 |
| COc1ccccc1N1C(=O)C2C(C(=O)c3ccccc3)=NN(c3ccc(C)cc3)C2C1=O (stereo unspecified) | 3.66 µM | 19.5 |
| Cn1c(=O)[nH]c2cc(Cl)cnc21 | 7.23 µM | 2.34 |
| O=C(OCCN1C(=O)c2cccc3c(N4CCOCC4)ccc(c23)C1=O)c1cc(Cl)cc(Cl)c1 | 1.42 µM | 49.6 |
| CC(C)(C)c1ccc(C(=O)Nc2cccc3c(=O)[nH][nH]c(=O)c23)cc1 | 5.97 µM | 3.72 |
| Nc1ccc2nc3c(=O)n(CCc4ccccc4)c(=O)[nH]c3nc2c1 | < 0.42 µM | 94.8 |
| Cc1ccc(C(NC(=O)C2CCCCC2)c2c(O)ccc3ccccc23)cc1 (stereo unspecified) | > 54 µM (inactive) | 1.03 |
| CCCSCC(=O)Nc1ncc2c(n1)-c1ccccc1CC2 | 5.28 µM | 2.7 |
| CC(=O)Nc1ccc2nc3c(=O)n(C)c(=O)n(C)c3nc2c1 | 1 µM | 4.35 |
| CCN(CC)c1ccc2oc(=O)c(C)nc2c1 | 4.76 µM | 9.58 |
| N#Cc1cccc(NC(=O)CSc2ccc3c4c(cccc24)C(=O)c2ccccc2-3)c1 | 5.72 µM | 3.94 |
| O=[N+]([O-])c1ccc(Sc2cccc3cccnc23)c2cccnc12 | 29.5 µM | 2.58 |
| COc1ccc(OC)c(/C=c2\sc3nc(-c4cccs4)nn3c2=O)c1 | 6.04 µM | 5.71 |
| CCCn1c(O)c(N=Nc2ccc3ccccc3n2)c2ccccc21 | > 54 µM (inactive) | 1.5 |
| O=C(O)/C=C/c1cn(-c2ccccc2)nc1-c1ccc(-c2ccc([N+](=O)[O-])cc2)o1 | 5.25 µM | 2.34 |

| SMILES | IC50 | fold change |
| --- | --- | --- |
| Cc1ccc(C(=O)ONc2ccc(N=NC(=O)c3ccccc3O)cc2)cc1 | 4.35 µM | 0.99 |
| COC(=O)CN1C(=O)N(c2ccccc2)C(N(O)C(=O)Nc2ccccc2)C1(C)C (stereo unspecified) | > 54 µM (inactive) | 1 |
| O=c1ccc2cc3c4c(c2o1)CCCN4CCC3 | < 0.42 µM | 36.4 |
| COc1ccc(NC(=O)CSc2ccc3c4c(cccc24)C(=O)c2ccccc2-3)cc1 | 3.14 µM | 11 |
| Cc1cc(-c2ccc(N3CCOCC3)cc2)nc2ccccc12 | – | 2.8 |
| CN1C(=O)C(=Cc2ccc(N3CCCCCC3)cc2)C(=O)N(C)C1=O | 6.16 µM | 11.1 |
| COc1cc(CCC(=O)N2CCN(c3ncccn3)CC2)cc(OC)c1OC | > 54 µM (inactive) | 1.05 |
| COc1ccc(NC(=O)CSc2nc3c(c(-c4cccs4)c2C#N)CN(C)CC3)cc1OC | > 54 µM (inactive) | 1.37 |
| CCCCCCn1c(=O)[nH]c2nc3cc(N)ccc3nc2c1=O | < 0.42 µM | 85.8 |
| CC1CC=C2C(C#N)=C(N)C(C#N)(C#N)C(c3cccs3)C2C1 (stereo unspecified) | 12.8 µM | 2.49 |
| Cc1ccc(-n2cccc2/C=C2\C(=N)N3N=C(c4ccco4)SC3=NC2=O)cc1 | > 54 µM (inactive) | 1.17 |
| O=C(OCCN1C(=O)c2cccc3c(N4CCOCC4)ccc(c23)C1=O)c1ccc(Cl)cc1Cl | 1.81 µM | 84.3 |
| Cn1c(=O)c(Nc2ccc(Cl)cc2)c2c3c(cccc31)C(=O)c1ccccc1-2 | < 0.42 µM | 25.4 |
| CCCCCC(=O)N/N=C/c1ccc(N(C)C)cc1 | > 54 µM (inactive) | 1.05 |
| COc1ccc(C(=O)Nc2cccc(-c3cc4ccccc4oc3=O)c2)cc1[N+](=O)[O-] | > 54 µM (inactive) | 0.607 |
| Cn1c(=O)c(NC2CCCCC2)c2c3c(cccc31)C(=O)c1ccccc1-2 | 0.88 µM | 34.7 |
| Cc1cccc2c3nc4ccccc4nc3n(CCCN3C(=O)c4ccccc4C3=O)c12 | 15.9 µM | 3.01 |
| CC(=O)Nc1ccc(N2CCc3c(C)c(C#N)c4nc5ccccc5n4c32)cc1 | > 54 µM (inactive) | 3.39 |
